Data on one molecule can be found in patent publication US8492515B2 (priority 2008, dated 2013).

Values after ≈ are worked out from the molar mass of the structure shown. Square brackets hold non-standard residues; d marks the D form. Peptide text beside a SMILES is read from it. Ac6c = NC1(C(=O)O)CCCCC1

One assay has as its system E. coli HK101. The following applies: quarter strength Mueller-Hinton broth, overnight, 37° C. The source says:
To investigate the activity of the A3-APO metabolites, Chex1-Arg20 single chain unit and an Arg7-Arg20 common cleavage fragment were synthesized and […], a true measure of potential clinical viability (Otvos et al., 2005. J. Med. Chem. 48: 5349-5359). The peptides of the invention were made on a CEM Liberty automated synthesizer with standard Fmoc-chemistry. The peptides were detached from the resin with the carboxyl terminus of the C-terminal Arg residue being in the form of an amino amide, —C(O)—NH2 (“Chex1-Arg20-NH2” and “Arg7-Arg20-NH2”), while still in the microwave chamber, and were purified by RP-HPLC. […] The biological studies carried out on chemically synthesized peptides in this example and succeeding examples were carried out on the C-terminal modified versions of the peptides wherein the C-terminal carboxylic acid function was in the form of an amide, —C(O)—NH2. […] The cell concentrations were estimated by measuring the ultraviolet absorbance at 600 nm and applying the formula cfu/mL=A600(3.8×10^8), where cfu is the number of colony-forming units. […] Cultures were then incubated at 37° C., 5% CO2 for 16-20 h without shaking, and growth inhibition was measured by recording the absorbance at 600 nm using a microplate reader. […]
Following the protocol of Example 2, minimal inhibitory concentrations of the Chex1-Arg20 peptide against selected bacteria was determined. […]

Assay [1] deals with Salmonella typhimurium isolates. The note with it: murium isolates.
For another assay, the system named is Escherichia coli 5770. As to the kind of experiment: Mouse survival after last dose, systemic infection model without cisplatin pretreatment. It counts as in vivo. Here is the method: The survival rate and the dynamics of survival of mice after the last dose of an antibacterial peptide treatment (12 hours post-infection) were measured in a mouse model of Escherichia coli 5770 systemic infection. In this particular study, the animals were not pretreated with cisplatin. Ten animals were used in each group. […] In the control (infected, non-treated) and the imipenem treated rows, the first numbers reflect the number of surviving animals on the day of assay measuring the efficacy of the Chex1-Arg20 and the second numbers are the surviving control animals on the day of the A3-APO efficacy assay.

For the molecule `CC(C)C[C@H](NC(=O)[C@H](Cc1ccc(O)cc1)NC(=O)[C@@H]1CCCN1C(=O)[C@H](CCCNC(=N)N)NC(=O)[C@@H]1CCCN1C(=O)[C@H](CCCCN)NC(=O)[C@H](CC(=O)O)NC(=O)[C@@H]1CCCN1C(=O)[C@H](CCCNC(=N)N)NC(=O)C1(N)CCCCC1)C(=O)N1CCC[C@H]1C(=O)N[C@@H](CCCNC(=N)N)C(=O)N1CCC[C@H]1C(=O)N[C@@H](CCCNC(=N)N)C(=O)N1CCC[C@H]1C(=O)N1CCC[C@H]1C(=O)N[C@@H](CCCNC(=N)N)C(=O)N1CCC[C@H]1C(=O)N[C@H](C(=O)N[C@@H](CCCNC(=N)N)C(=O)O)C(C)C` [Chex1-Arg20, Chex-Arg-Pro-Asp-Lys-Pro-Arg-Pro-Tyr-Leu-Pro-Arg-Pro-Arg--Pro-Pro-Arg-Pro-Val-Arg] (H-[Ac6c]RPDKPRPYLPRPRPPRPVR-OH; N-terminus and C-terminus assumed), the “MIC, E. coli HK101” value in the assay on E. coli HK101 was determined as 0.5 µg/mL (≈ 0.202 µM). Besides, the “minimal bactericidal concentrations (MBC)” value in assay [1] was 4 µg/mL (≈ 1.62 µM). For the same molecule, the “number of surviving mice (10 animals each)” value (from here on “number of surviving mice”) with Escherichia coli 5770 (2.5 mg/kg, 0 h after last dose) is on record as 10; with Escherichia coli 5770 (2.5 mg/kg, 3 h after last dose), 7/7; in the assay on Escherichia coli 5770 (2.5 mg/kg, 6 h after last dose), 7; with Escherichia coli 5770 (2.5 mg/kg, 9 h after last dose), 5; in the assay on Escherichia coli 5770 (2.5 mg/kg, 12 h after last dose), 4; with Escherichia coli 5770 (5 mg/kg, 0 h after last dose) it was 9. In addition, the “number of surviving mice” value in the assay with Escherichia coli 5770 (5 mg/kg, 3 h after last dose) amounted to 9; with Escherichia coli 5770 (5 mg/kg, 6 h after last dose) it was 8; in the assay with Escherichia coli 5770 (5 mg/kg, 9 h after last dose), 6; in the assay on Escherichia coli 5770 (5 mg/kg, 12 h after last dose) it was 5; in the assay with Escherichia coli 5770 (10 mg/kg, 0 h after last dose), 10; with Escherichia coli 5770 (10 mg/kg, 3 h after last dose), 10. The “number of surviving mice” value with Escherichia coli 5770 (10 mg/kg, 6 h after last dose) is 10; in the assay on Escherichia coli 5770 (10 mg/kg, 9 h after last dose), 9; in the assay with Escherichia coli 5770 (10 mg/kg, 12 h after last dose) it was 5.
